Measured values taken from ChEMBL document CHEMBL1156419, “Inhibition of metalloprotease botulinum serotype A from a pseudo-peptide binding mode to a small molecule that is active in primary neurons” (J Biol Chem, 2007).
Where a SMILES comes first, the peptide text is derived from it. The star is where a group is joined. Propanoyl(2S-SH,3-Ph) = O=C([C@@H](S)Cc1ccccc1)*; X1 = O=C([C@H](S)Cc1ccccc1)*

Columns and labels:
[1] = Cytotoxicity in embryonic chicken spinal neurons at 1 to 5 uM after 3.5 hrs; design: species or system Gallus gallus
[2] = target: Botulinum neurotoxin type A (Clostridium botulinum (strain Hall / ATCC 3502 / NCTC 13319 / Type A), UniProt P0DPI1); experiment: Inhibition of BoNT/A light chain metalloprotease activity
Sequence of Botulinum neurotoxin type A (P0DPI1 2-448 limits assumed): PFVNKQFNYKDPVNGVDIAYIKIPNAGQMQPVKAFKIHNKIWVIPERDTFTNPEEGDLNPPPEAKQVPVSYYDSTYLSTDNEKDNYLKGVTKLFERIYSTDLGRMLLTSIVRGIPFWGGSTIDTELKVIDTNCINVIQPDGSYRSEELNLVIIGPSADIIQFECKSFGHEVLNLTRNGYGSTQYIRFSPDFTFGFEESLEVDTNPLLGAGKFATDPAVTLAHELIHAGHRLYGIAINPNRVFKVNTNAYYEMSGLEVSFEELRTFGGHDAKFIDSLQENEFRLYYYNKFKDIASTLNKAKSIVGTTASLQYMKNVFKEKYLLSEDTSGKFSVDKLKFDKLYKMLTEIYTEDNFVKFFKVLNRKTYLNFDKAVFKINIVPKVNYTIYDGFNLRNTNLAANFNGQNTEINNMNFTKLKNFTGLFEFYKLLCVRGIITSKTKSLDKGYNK

SMILES	Activity [1]	Ki [2]
N=C(N)N/N=C/c1ccc(-c2cc3ccc(/C=N/NC(=N)N)cc3s2)cc1	Toxic	3 µM
CSCC[C@H](NC(=O)[C@H](CCCCN)NC(=O)[C@@H](NC(=O)[C@H](C)NC(=O)[C@H](CCCNC(=N)N)NC(=O)[C@@H](N)CS)[C@@H](C)O)C(=O)N[C@@H](CC(C)C)C(=O)O (H-CRATKML-OH)		2 µM
CSCC[C@H](NC(=O)[C@H](CCCCN)NC(=O)[C@@H](NC(=O)[C@H](C)NC(=O)[C@H](CCCCN)NC(=O)[C@@H](S)Cc1ccccc1)[C@@H](C)O)C(=O)N[C@@H](CC(C)C)C(=O)O ({Propanoyl(2S-SH,3-Ph)}-KATKML-OH)		> 300 µM
C(=C\c1cc2ccc(C3=NCCN3)cc2[nH]1)/c1ccc2cc(C3=NCCN3)[nH]c2c1		10 µM
C[C@H](NC(=O)[C@H](CCCNC(=N)N)NC(=O)[C@@H](S)Cc1ccccc1)C(=O)N[C@H](C(=O)O)[C@@H](C)O		30 µM
CSCC[C@H](NC(=O)[C@H](CCCCN)NC(=O)[C@@H](NC(=O)[C@H](C)NC(=O)[C@H](CCCNC(=N)N)NC(=O)[C@H](S)Cc1ccccc1)[C@@H](C)O)C(=O)N[C@@H](CC(C)C)C(=O)O (X1-RATKML-OH)		8 µM
N=C(N)c1ccc2oc(/C=C/C=C/C=C/c3cc4cc(C(=N)N)ccc4o3)cc2c1	Toxic	6 µM
CSCC[C@H](NC(=O)[C@H](C)NC(=O)[C@@H](NC(=O)[C@H](C)NC(=O)[C@H](CCCN=C(N)N)NC(=O)[C@@H](S)Cc1ccccc1)[C@@H](C)O)C(=O)N[C@@H](CC(C)C)C(=O)O ({Propanoyl(2S-SH,3-Ph)}-RATAML-OH)		3 µM
C[C@H](NC(=O)[C@H](CCCNC(=N)N)NC(=O)[C@@H](S)Cc1ccccc1)C(=O)N[C@H](C(=O)N[C@@H](CCCCN)C(=O)O)[C@@H](C)O ({Propanoyl(2S-SH,3-Ph)}-RATK-OH)		4 µM
CSCC[C@H](NC(=O)[C@H](CCCCN)NC(=O)[C@@H](NC(=O)[C@H](C)NC(=O)[C@H](CCCN=C(N)N)NC(=O)[C@@H](S)Cc1ccccc1)[C@@H](C)O)C(=O)O ({Propanoyl(2S-SH,3-Ph)}-RATKM-OH)		0.4 µM
CSCC[C@H](NC(=O)[C@H](CCCCN)NC(=O)[C@H](C)NC(=O)[C@H](C)NC(=O)[C@H](CCCNC(=N)N)NC(=O)[C@@H](S)Cc1ccccc1)C(=O)N[C@@H](CC(C)C)C(=O)O ({Propanoyl(2S-SH,3-Ph)}-RAAKML-OH)		0.7 µM
C[C@H](NC(=O)[C@H](CCCNC(=N)N)NC(=O)[C@@H](S)Cc1ccccc1)C(=O)O		60 µM
CSCC[C@H](NC(=O)[C@H](CCCCN)NC(=O)[C@@H](NC(=O)[C@@H](NC(=O)[C@H](CCCN=C(N)N)NC(=O)[C@@H](S)Cc1ccccc1)C(C)C)[C@@H](C)O)C(=O)N[C@@H](CC(C)C)C(=O)O ({Propanoyl(2S-SH,3-Ph)}-RVTKML-OH)		2 µM
NC(N)=NCCC[C@H](NC(=O)[C@@H](S)Cc1ccccc1)C(=O)O		60 µM
CSCC[C@H](NC(=O)[C@H](CCCCN)NC(=O)[C@@H](NC(=O)[C@H](C)NC(=O)[C@H](CCCNC(=N)N)NC(=O)[C@@H](S)Cc1ccccc1)[C@@H](C)O)C(=O)N[C@@H](CC(C)C)C(=O)O ({Propanoyl(2S-SH,3-Ph)}-RATKML-OH)		0.3 µM
CSCC[C@H](NC(=O)[C@H](CCCCN)NC(=O)[C@@H](NC(=O)[C@H](C)NC(=O)[C@H](CCCNC(=N)N)NC(=O)[C@@H](S)Cc1ccccc1)[C@@H](C)O)C(=O)N[C@@H](CC(C)C)C(=O)NCC(=O)N[C@@H](CO)C(=O)NCC(=O)O ({Propanoyl(2S-SH,3-Ph)}-RATKMLGSG-OH)		0.3 µM
CC(C)C[C@H](NC(=O)[C@H](C)NC(=O)[C@H](CCCCN)NC(=O)[C@@H](NC(=O)[C@H](C)NC(=O)[C@H](CCCNC(=N)N)NC(=O)[C@@H](S)Cc1ccccc1)[C@@H](C)O)C(=O)O ({Propanoyl(2S-SH,3-Ph)}-RATKAL-OH)		0.7 µM
